Assay results from patent publication US20050019341A1, “Tumor antigen” (priority 2001, published 2005).

Legend:
[1] = system: OK-CTL (HLA-A2-restricted cytotoxic T-lymphocyte strain); assay: CTL activation test: T2 cells pulsed with peptide co-cultured with OK-CTL, IFN-γ by ELISA; type: cell-based, human; settings: E/T ratio=10, 18 hours, dose-dependent
Description: The T2 cells, pulsed with each peptide in this way, were used as the target cells (T). In addition, the OK-CTL obtained in Example 1 were used as effector cells (E). Target cells amounting to 1×10^4 and effector cells amounting to 1×10^5 were mixed (E/T ratio=10) and incubated for 18 hours. After incubation, 100 μl of supernatant was collected, and IFN-γ was measured by ELISA. The quantity of IFN-γ produced by CTL against T2 cells that were not pulsed with a peptide was taken as the background and subtracted from each measurement value.

[2] = system: PBMC of HLA-A2+ brain tumor patients; targets T2 cells pulsed with corresponding peptide and/or HLA-A2+ tumor cells; assay: Induction of CTL by peptides from PBMC of brain tumor patients (Example 5): IFN-γ production; type: cell-based, human; settings: Patient Case 4 (brain tumor)
Description: (§1) The PBMC were prepared by methods of the art from the blood of three primary brain tumor patients and one metastatic brain tumor patient. The PBMC obtained were stimulated by incubation with each peptide in the same way as in Example 4, and were cultured by the same method as in Example 3 using T2 cells that were pulsed with each corresponding peptide or KNS60 tumor cells as target cells, followed by measuring the quantity of IFN-γ produced. When T2 cells that were pulsed with the peptides were used as target cells, the PBMC was paired with the T2 cells in such a way that the peptide used to stimulate PBMC and the peptide pulsed to T2 cells were the same.

[3] = system: PBMC of multiple sclerosis patients; T2 cells pulsed with corresponding peptide; assay: Peptide recognition in PBMC of multiple sclerosis patients (Example 6): IFN-γ production against peptide-pulsed T2 cells; type: cell-based, human; settings: MS Patient Case 7
Description: as §1
(§2) Among the 13 types of peptide obtained in Example 3, three peptides, P101 (SEQ ID NO: 1), P102 (SEQ ID NO: 2), and P103 (SEQ ID NO: 3), which were derived from clone 8B6, as well as three peptides, P104 (SEQ ID NO: 4), P105 (SEQ ID NO: 5), and P106 (SEQ ID NO: 6), which were derived from clone 2G2, were examined for their ability to induce CTL from PBMC obtained from multiple sclerosis patients having HLA-A2 as the HLA type and healthy subjects, in the same manner as in Example 5.

immunoglobulin E (IgE) = assay: ELISA for peptide-specific IgE in serum; type: binding, human; settings: serum of MS patients
Description: The presence of immunoglobulin E (IgE) and immunoglobulin G (IgG) that specifically recognize P102 (SEQ ID NO: 2), P103 (SEQ ID NO: 3), P104 (SEQ ID NO: 4), or P106 (SEQ ID NO: 6) in the serum of a multiple sclerosis patient, a brain tumor patient, and a healthy subject was measured by the enzyme-linked immunosorbent assay (ELISA).
Each aforementioned peptide (20 μg/well) was immobilized in a 96-well Nunc Covalink flat-bottomed plate (Fisher Scientific), using disuccinimidyl suberate (PIERCE), following the product instructions. This plate was blocked with Block Ace (Yukijirushi) and washed with 0.05% Tween20-PBS; a serum or blood plasma sample was diluted with 0.05% Tween20-Block Ace and added to the plate at 100 μl/well. After incubation for 2 hours at 37° C., the plate was washed with 0.05% Tween20-PBS and further incubated for 2 hours at 37° C. with rabbit anti-human IgE antibody (E chain-specific), anti-human IgG antibody (y chain-specific) (DAKO), or anti-human IgG subclass-specific antibody (Zymed Laboratories), each of which were diluted to 1:1000. […] Thereafter, the reaction was stopped by adding 1 M phosphoric acid, and the optical density (OD) at 450 nm was measured. In so doing, peptides derived from EBV, HIV, SART2 (JP-11-318455), or SART3 (Cancer Research, 1999, Volume 59, pp. […]) were used as controls and measured similarly. […]

HLA-A2+ tumor cells = assay: Peptide-stimulated PBMC of multiple sclerosis patients: recognition of tumor cells (IFN-γ); type: cell-based, human; settings: PBMC from multiple sclerosis patients
Description: as §1, §2

IMSRDLVPRI (Designed peptide recognized by HLA-A2-restricted cytotoxic T lymphocytes) [P102, peptide derived from clone 8B6]
recognition by OK-CTL / production of IFN-γ from OK-CTL [1]: enhanced production of IFN-γ from OK-CTL | production of IFN-γ from PBMC [2]: enhanced production of IFN-γ | production of IFN-γ from PBMC [3]: enhanced production of IFN-γ | IgE that specifically recognizes the peptide (immunoglobulin E (IgE)): is present | recognition of tumor cells by peptide-stimulated PBMC (HLA-A2+ tumor cells): did not recognize the tumor cells
